Data from ChEMBL document CHEMBL5550211 (J Med Chem, 2024).
≈ marks a conversion by molar mass, not a printed value. Calls of active or inactive are those of the source. No cut-off for these calls is given here.

Tests used:
[1] = Unbound drug concentration in mouse brain at 10 mg/kg, po after 2 hrs; type: ADME, organism-based; details: in vivo
[2] = Plasma protein binding in dog assessed as unbound fraction; type: ADME, cell-free, Canis lupus familiaris
[3] = Drug concentration in mouse brain at 30 mg/kg, po after 2 hrs; type: ADME, organism-based; details: read-out: Ct
[4] = Oral bioavailability in mouse at 30 mg/kg; type: ADME, organism-based; details: in vivo
[5] = Unbound drug concentration in mouse plasma at 30 mg/kg, po after 2 hrs; type: ADME, organism-based; details: in vivo
[6] = Chemical stability in MeOH/NaHCO3/glutathione assessed as drug metabolism assessed as SN2 substitution after 50 degreeC overnight incubation; type: physicochemical; details: read-out: Drug metabolism
[7] = Oral bioavailability in mouse at 10 mg/kg; type: ADME, organism-based; details: in vivo
[8] = Cmax in mouse at 10 mg/kg, po; type: ADME, organism-based; details: in vivo
[9] = Protein binding in dog brain assessed as unbound fraction; type: ADME, tissue-based, Canis lupus familiaris
[10] = Protein binding in cynomolgus monkey brain assessed as unbound fraction; type: ADME, tissue-based, Macaca fascicularis
[11] = Plasma protein binding in mouse assessed as unbound fraction; type: ADME, cell-free
[12] = Solubility in stimulated gastric fluid at pH 1.2; type: ADME; details: simulated gastric fluid
[13] = Toxicity in Nu/nu NCR mouse intracerebrally xenografted with human A-375 cells harboring BRAF V600E mutant assessed as body weight loss at 5 to 10 mg/kg, po measured after 60 days; type: organism-based; details: in vivo, 1440 h, dose 5-10 mg/kg, time 60 day
[14] = tested on: A-375; test: Antitumor activity against human A-375 cells harboring BRAF V600E mutant xenografted in Nu/nu NCR mouse assessed as tumor regression at 10 to 30 mg/kg, po BID for 60 days; type: functional; details: dose 10-30 mg/kg, time 60 day
[15] = Half-life in mouse at 3 mg/kg, iv; type: ADME, organism-based; details: in vivo
[16] = Apparent permeability across apical to basolateral side in LLC-PK1 cells; type: ADME, cell-based, Sus scrofa; details: pig
[17] = Unbound drug concentration in mouse plasma at 30 mg/kg, po after 4 hrs; type: ADME, organism-based; details: in vivo
[18] = Chemical stability in MeOH/NaHCO3/cysteine assessed as drug metabolism assessed as SN2 substitution after 50 degreeC overnight incubation; type: physicochemical; details: read-out: Drug metabolism
[19] = tested on: A-375; test: Antitumor activity against human A-375 cells harboring BRAF V600E mutant xenografted in Nu/nu NCR mouse assessed as tumor regression at 10 mg/kg, po BID measured after 2 weeks; type: functional, organism-based
[20] = Drug concentration in mouse plasma at 30 mg/kg, po after 2 hrs; type: ADME, organism-based
[21] = AUCinfinity in mouse at 5 mg/kg, po; type: ADME, organism-based; details: in vivo
[22] = Drug concentration in mouse plasma at 10 mg/kg, po after 4 hrs; type: ADME, organism-based
[23] = Plasma protein binding in rat assessed as unbound fraction; type: ADME, cell-free
[24] = Dissociation constant, pKa of the compound; type: physicochemical
[25] = Drug concentration in mouse brain at 5 mg/kg, po after 4 hrs; type: ADME, organism-based; details: read-out: Ct
[26] = Drug concentration in mouse plasma at 10 mg/kg, po after 2 hrs; type: ADME, organism-based
[27] = Tmax in mouse at 5 mg/kg, po; type: ADME, organism-based; details: in vivo
[28] = Unbound drug concentration in mouse plasma at 10 mg/kg, po after 2 hrs; type: ADME, organism-based; details: in vivo
[29] = Unbound drug concentration in mouse plasma at 5 mg/kg, po after 4 hrs; type: ADME, organism-based; details: in vivo
[30] = Drug concentration in mouse plasma at 5 mg/kg, po after 4 hrs; type: ADME, organism-based
[31] = tested on: A-375; test: Antitumor activity against human A-375 cells harboring BRAF V600E mutant xenografted in Nu/nu NCR mouse assessed as tumor flux inhibition at 10 to 30 mg/kg, po BID for 60 days; type: functional; design: scale not given: the % may be the effect or the level left; details: dose 10-30 mg/kg, time 60 day
[32] = Solubility in stimulated intestinal fluid at pH 6.5; type: ADME; details: simulated intestinal fluid
[33] = Unbound drug concentration in mouse brain at 10 mg/kg, po after 4 hrs; type: ADME, organism-based; details: in vivo
[34] = Drug concentration in mouse brain at 30 mg/kg, po after 4 hrs; type: ADME, organism-based; details: read-out: Ct
[35] = Clearance in mouse at 3 mg/kg, iv; type: ADME, organism-based; details: in vivo
[36] = Volume of distribution at steady state in mouse at 3 mg/kg, iv; type: ADME, organism-based; details: in vivo, read-out: Vdss
[37] = Oral bioavailability in mouse at 5 mg/kg; type: ADME, organism-based; details: in vivo
[38] = AUCinfinity in mouse at 10 mg/kg, po; type: ADME, organism-based; details: in vivo
[39] = Unbound drug concentration in mouse brain at 5 mg/kg, po after 4 hrs; type: ADME, organism-based; details: in vivo
[40] = Toxicity in Nu/nu NCR mouse intracerebrally xenografted with human A-375 cells harboring BRAF V600E mutant assessed as animal death at 5 to 10 mg/kg, po measured after 60 days; type: organism-based; details: in vivo, 1440 h, dose 5-10 mg/kg, time 60 day
[41] = tested on: A-375; test: Antitumor activity against human A-375 cells harboring BRAF V600E mutant xenografted in Nu/nu NCR mouse assessed as IC90 coverage time at 5 mg/kg, po BID for 21 days; type: functional; details: time 21 day
[42] = Unbound drug concentration in mouse plasma at 5 mg/kg, po after 2 hrs; type: ADME, organism-based; details: in vivo
[43] = Unbound drug concentration in mouse brain at 5 mg/kg, po after 2 hrs; type: ADME, organism-based; details: in vivo
[44] = Unbound drug concentration in mouse brain at 30 mg/kg, po after 2 hrs; type: ADME, organism-based; details: in vivo
[45] = Drug concentration in mouse plasma at 30 mg/kg, po after 4 hrs; type: ADME, organism-based
[46] = Protein binding in mouse brain assessed as unbound fraction; type: ADME, tissue-based
[47] = tested on: A-375; test: Antitumor activity against human A-375 cells harboring BRAF V600E mutant xenografted in Nu/nu NCR mouse assessed as IC90 coverage time at 10 mg/kg, po BID for 21 days; type: functional; details: time 21 day
[48] = AUCinfinity in mouse at 30 mg/kg, po; type: ADME, organism-based; details: in vivo
[49] = Protein binding in rat brain assessed as unbound fraction; type: ADME, tissue-based
[50] = Drug concentration in mouse brain at 10 mg/kg, po after 4 hrs; type: ADME, organism-based; details: read-out: Ct
[51] = tested on: A-375; test: Antitumor activity against human A-375 cells harboring BRAF V600E mutant xenografted in Nu/nu NCR mouse assessed as tumor regression at 5 mg/kg, po BID for 21 days; type: functional, organism-based; details: time 21.0 day
[52] = biological target: Voltage-gated inwardly rectifying potassium channel KCNH2 (Homo sapiens, UniProt Q12809); test: Inhibition of hERG; type: toxicity
Chain of Voltage-gated inwardly rectifying potassium channel KCNH2 (Q12809 whole entry): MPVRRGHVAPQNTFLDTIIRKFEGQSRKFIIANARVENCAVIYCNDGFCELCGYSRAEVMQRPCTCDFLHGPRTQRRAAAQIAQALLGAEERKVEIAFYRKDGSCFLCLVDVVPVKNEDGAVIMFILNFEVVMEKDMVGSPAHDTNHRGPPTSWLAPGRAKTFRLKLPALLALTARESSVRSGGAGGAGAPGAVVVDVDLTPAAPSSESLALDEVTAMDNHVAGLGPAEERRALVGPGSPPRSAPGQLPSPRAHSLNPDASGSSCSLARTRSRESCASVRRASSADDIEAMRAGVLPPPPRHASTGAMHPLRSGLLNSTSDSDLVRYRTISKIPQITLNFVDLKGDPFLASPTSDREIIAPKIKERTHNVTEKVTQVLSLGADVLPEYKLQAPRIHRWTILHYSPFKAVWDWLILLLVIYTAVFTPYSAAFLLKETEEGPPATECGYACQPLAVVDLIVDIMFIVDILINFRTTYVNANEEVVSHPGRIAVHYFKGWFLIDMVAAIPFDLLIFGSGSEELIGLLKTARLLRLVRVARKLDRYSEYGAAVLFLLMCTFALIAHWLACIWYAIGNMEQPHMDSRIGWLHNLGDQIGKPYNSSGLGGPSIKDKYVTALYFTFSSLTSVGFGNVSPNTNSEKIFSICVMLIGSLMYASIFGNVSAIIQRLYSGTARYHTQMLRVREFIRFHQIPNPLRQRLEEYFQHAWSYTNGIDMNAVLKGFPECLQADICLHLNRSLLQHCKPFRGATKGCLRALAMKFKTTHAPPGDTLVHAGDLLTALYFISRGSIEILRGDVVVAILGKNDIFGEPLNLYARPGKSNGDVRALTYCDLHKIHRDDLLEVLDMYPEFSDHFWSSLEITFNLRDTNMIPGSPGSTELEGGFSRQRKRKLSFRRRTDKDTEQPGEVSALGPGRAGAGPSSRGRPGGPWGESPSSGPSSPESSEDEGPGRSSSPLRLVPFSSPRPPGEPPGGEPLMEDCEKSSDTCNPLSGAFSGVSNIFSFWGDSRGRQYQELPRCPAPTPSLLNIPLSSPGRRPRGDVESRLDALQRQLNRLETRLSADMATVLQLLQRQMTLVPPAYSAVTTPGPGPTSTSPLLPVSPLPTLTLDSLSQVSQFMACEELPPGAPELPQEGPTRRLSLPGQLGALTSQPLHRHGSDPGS

[53] = Cmax in mouse at 30 mg/kg, po; type: ADME, organism-based; details: in vivo
[54] = Unbound drug concentration in mouse plasma at 10 mg/kg, po after 4 hrs; type: ADME, organism-based; details: in vivo
[55] = tested on: A-375; test: Antitumor activity against human A-375 cells harboring BRAF V600E mutant xenografted in Nu/nu NCR mouse assessed as IC90 coverage at 5 mg/kg, po BID for 60 days; type: functional, organism-based; details: time 60.0 day
[56] = Solubility in buffer at pH 7.4; type: physicochemical
[57] = Tmax in mouse at 10 mg/kg, po; type: ADME, organism-based; details: in vivo
[58] = tested on: A-375; test: Antitumor activity against human A-375 cells harboring BRAF V600E mutant xenografted in Nu/nu NCR mouse assessed as IC90 coverage time at 30 mg/kg, po BID for 60 days; type: functional; details: time 60 day
[59] = Cmax in mouse at 5 mg/kg, po; type: ADME, organism-based; details: in vivo
[60] = Plasma protein binding in human assessed as unbound fraction; type: ADME, cell-free
[61] = Drug concentration in mouse brain at 10 mg/kg, po after 2 hrs; type: ADME, organism-based; details: read-out: Ct
[62] = Drug concentration in mouse brain at 5 mg/kg, po after 2 hrs; type: ADME, organism-based; details: read-out: Ct
[63] = tested on: A-375; test: Antitumor activity against human A-375 cells harboring BRAF V600E mutant xenografted in Nu/nu NCR mouse assessed as IC90 coverage time at 10 mg/kg, po BID for 60 days; type: functional; details: time 60 day
[64] = Drug concentration in mouse plasma at 5 mg/kg, po after 2 hrs; type: ADME, organism-based
[65] = Tmax in mouse at 30 mg/kg, po; type: ADME, organism-based; details: in vivo
[66] = Unbound drug concentration in mouse brain at 30 mg/kg, po after 4 hrs; type: ADME, organism-based; details: in vivo
[67] = Toxicity in Nu/nu NCR mouse subcutaneously xenografted with human A-375 cells harboring BRAF V600E mutant assessed as body weight loss at 5 to 10 mg/kg, po measured after 21 days; type: organism-based; details: in vivo, 504 h, dose 5-10 mg/kg, time 21 day
[68] = Plasma protein binding in cynomolgus monkey assessed as unbound fraction; type: ADME, cell-free, Macaca fascicularis

Cc1c(Nc2c(F)ccc(NS(=O)(=O)CCCF)c2Cl)ccc2ncn(C)c(=O)c12 [TINLORAFENIB]
Drug uptake(free) [1]: 0.14 µg/g
fraction unbound [2]: 0.017
concentration at 2 h [3]: 2400 ng/g
bioavailability [4]: 130%
Cp(f) [5]: 300 ng/mL
degraded [6]: < 1%
F [7]: 192%
Cmax [8]: 14000 ng/mL
fraction unbound [9]: 0.073
fraction unbound [10]: 0.068
fraction unbound [11]: 0.019
solubility [12]: 132 µg/mL (≈ 289 µM)
Activity [13]: < 5%
Activity [14]: >90%
half-life [15]: 1.9 h
Papp A→B [16]: 36 ×10⁻⁶ cm/s
Cp(f) [17]: 230 ng/mL
degraded [18]: < 1%
Activity [19]: Active
concentration at 2 h [20]: 16000 ng/mL
AUC(0-inf) [21]: 28000 ng·h/mL
concentration at 4 h [22]: 9900 ng/mL
fraction unbound [23]: 0.003
pKa [24]: 7.41
concentration at 4 h [25]: 530 ng/g
concentration at 2 h [26]: 11000 ng/mL
Tmax [27]: 1 h
Cp(f) [28]: 220 ng/mL
Cp(f) [29]: 59 ng/mL
concentration at 4 h [30]: 3100 ng/mL
Activity [31]: >99%
solubility [32]: 7.6 µg/mL (≈ 16.6 µM)
Drug uptake(free) [33]: 0.14 µg/g
concentration at 4 h [34]: 2100 ng/g
clearance [35]: 3.7 mL/min/kg
Vd [36]: 0.59 L/kg
bioavailability [37]: 126%
AUC(0-inf) [38]: 86000 ng·h/mL
Drug uptake(free) [39]: 0.046 µg/g
Activity [40]: Non-Toxic
Time [41]: ~8 h
Cp(f) [42]: 79 ng/mL
Drug uptake(free) [43]: 0.051 µg/g
Drug uptake(free) [44]: 0.21 µg/g
concentration at 4 h [45]: 12000 ng/mL
fraction unbound [46]: 0.087
Time [47]: >16 h
AUC(0-inf) [48]: 176000 ng·h/mL
fraction unbound [49]: 0.068
concentration at 4 h [50]: 1600 ng/g
Activity [51]: Active
IC50 [52]: 49.7 µM
Cmax [53]: 18000 ng/mL
Cp(f) [54]: 190 ng/mL
Activity [55]: inactive
solubility [56]: 9.1 µg/mL (≈ 19.9 µM)
Tmax [57]: 1 h
Time [58]: >24 h
Cmax [59]: 4700 ng/mL
fraction unbound [60]: 0.009
concentration at 2 h [61]: 1600 ng/g
concentration at 2 h [62]: 590 ng/g
Time [63]: ~16 h
concentration at 2 h [64]: 4200 ng/mL
Tmax [65]: 1 h
Drug uptake(free) [66]: 0.18 µg/g
Activity [67]: < 5%
fraction unbound [68]: 0.011
